PMC3961306, “Comparison of the Cancer Gene Targeting and Biochemical Selectivities of All Targeted Kinase Inhibitors Approved for Clinical Use” (PLoS ONE, 2014)

Assays:
Test in all cases: Kinase profiling in a biochemical assay panel (mobility shift assays and ELISA), %-inhibition at 1 μM; selectivity entropy
[1] = molecular target: panel of more than 300 wild-type and mutant kinases (313 kinase panel) (Homo sapiens, UniProt P16234, V561D)
[2] = molecular target: panel of more than 300 wild-type and mutant kinases (313 kinase panel) (Homo sapiens, UniProt Q9H0K1)
[3] = molecular target: panel of more than 300 wild-type and mutant kinases (313 kinase panel) (Homo sapiens, UniProt Q9UKE5)
[4] = molecular target: T1, panel of more than 300 wild-type and mutant kinases (313 kinase panel) (Homo sapiens, UniProt Q13976)
T1 sequence (Q13976 1-671): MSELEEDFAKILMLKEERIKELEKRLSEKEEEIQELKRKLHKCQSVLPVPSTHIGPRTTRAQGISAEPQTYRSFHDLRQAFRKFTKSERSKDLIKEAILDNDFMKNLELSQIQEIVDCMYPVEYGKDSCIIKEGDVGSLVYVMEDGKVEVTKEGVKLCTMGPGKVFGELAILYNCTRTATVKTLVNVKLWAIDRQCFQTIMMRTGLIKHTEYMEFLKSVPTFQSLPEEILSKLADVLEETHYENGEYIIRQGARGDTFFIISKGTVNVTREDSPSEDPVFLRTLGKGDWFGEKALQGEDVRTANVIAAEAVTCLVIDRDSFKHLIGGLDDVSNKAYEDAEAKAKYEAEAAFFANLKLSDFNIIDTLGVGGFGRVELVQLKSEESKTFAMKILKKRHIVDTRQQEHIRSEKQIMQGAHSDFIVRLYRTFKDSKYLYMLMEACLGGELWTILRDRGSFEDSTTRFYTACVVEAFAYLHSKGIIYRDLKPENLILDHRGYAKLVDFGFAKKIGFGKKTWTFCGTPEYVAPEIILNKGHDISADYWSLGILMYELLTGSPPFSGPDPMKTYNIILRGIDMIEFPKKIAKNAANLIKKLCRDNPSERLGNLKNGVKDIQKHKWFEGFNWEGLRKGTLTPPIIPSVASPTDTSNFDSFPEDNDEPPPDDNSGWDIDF

[5] = molecular target: T2, panel of more than 300 wild-type and mutant kinases (313 kinase panel) (Homo sapiens, UniProt O14965)
T2 sequence (O14965 1-403): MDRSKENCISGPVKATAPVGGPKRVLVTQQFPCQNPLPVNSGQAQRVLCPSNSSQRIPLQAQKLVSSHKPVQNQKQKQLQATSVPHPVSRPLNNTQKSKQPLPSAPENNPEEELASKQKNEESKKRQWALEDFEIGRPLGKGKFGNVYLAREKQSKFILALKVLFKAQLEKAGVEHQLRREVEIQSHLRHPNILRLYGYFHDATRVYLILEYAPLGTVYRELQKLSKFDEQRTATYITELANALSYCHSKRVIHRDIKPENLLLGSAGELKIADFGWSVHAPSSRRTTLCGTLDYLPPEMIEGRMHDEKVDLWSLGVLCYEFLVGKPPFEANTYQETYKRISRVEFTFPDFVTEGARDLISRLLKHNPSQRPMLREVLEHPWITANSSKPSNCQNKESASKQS

[6] = molecular target: panel of more than 300 wild-type and mutant kinases (313 kinase panel) (Homo sapiens, UniProt Q9P1W9)
[7] = molecular target: panel of more than 300 wild-type and mutant kinases (313 kinase panel) (Homo sapiens, UniProt P10721, D816V)
[8] = molecular target: panel of more than 300 wild-type and mutant kinases (313 kinase panel) (Homo sapiens, UniProt P11309)
[9] = molecular target: T3, panel of more than 300 wild-type and mutant kinases (313 kinase panel) (Homo sapiens, UniProt Q13043)
T3 sequence (Q13043 1-487): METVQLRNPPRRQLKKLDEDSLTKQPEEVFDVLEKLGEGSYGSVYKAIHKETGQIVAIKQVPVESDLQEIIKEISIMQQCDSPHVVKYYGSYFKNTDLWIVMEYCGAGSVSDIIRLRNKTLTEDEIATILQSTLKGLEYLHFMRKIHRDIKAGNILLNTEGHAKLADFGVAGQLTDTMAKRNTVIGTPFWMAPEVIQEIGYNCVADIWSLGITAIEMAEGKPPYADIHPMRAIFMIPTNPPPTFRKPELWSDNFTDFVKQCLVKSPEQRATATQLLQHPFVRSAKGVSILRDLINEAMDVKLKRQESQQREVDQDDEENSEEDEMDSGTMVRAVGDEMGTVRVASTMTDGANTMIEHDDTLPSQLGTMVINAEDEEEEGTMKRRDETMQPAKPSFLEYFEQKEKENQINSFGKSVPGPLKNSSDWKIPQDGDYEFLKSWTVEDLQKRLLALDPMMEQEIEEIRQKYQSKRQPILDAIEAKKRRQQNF

[10] = kinase AurA/TPX2, 1 μM compound
[11] = kinase KIT(D816V), compound at 1 μM

SMILES | %-inhibition of PDGFRα(V561D) ([1]; kinase PDGFRα(V561D), 1 μM) | %-inhibition of QIK ([2]; kinase QIK, 1 μM) | %-inhibition of TNIK ([3]; kinase TNIK, 1 μM) | %-inhibition of PGK ([4]; kinase PGK, 1 μM) | %-inhibition, AurA/TPX2 [5, 10] | %-inhibition, AurA ([5]; kinase AurA, 1 μM compound) | %-inhibition of PIM2 ([6]; kinase PIM2, 1 μM) | %-inhibition of KIT(D816V) [7, 11] | %-inhibition of PIM1 ([8]; kinase PIM1, 1 μM) | %-inhibition of MST1 ([9]; kinase MST1, 1 μM) | %-inhibition of PDGFRα(V561D) ([1]; 1 µM) | %-inhibition of QIK ([2]; 1 µM) | %-inhibition of TNIK ([3]; 1 µM) | %-inhibition of PGK ([4]; 1 µM) | %-inhibition of KIT(D816V) ([7]; 1 µM) | %-inhibition of PIM1 ([8]; 1 µM) | %-inhibition, AurA ([5]; 1 µM) | %-inhibition, AurA/TPX2 ([5]; 1 µM) | %-inhibition of PIM2 ([6]; 1 µM) | %-inhibition of MST1 ([9]; 1 µM)
Cc1ccc(C(=O)Nc2ccc(CN3CCN(C)CC3)c(C(F)(F)F)c2)cc1C#Cc1cnc2cccnn12 [ponatinib] | 103% | 51% | 96% | -0.866% | -3.42% | 9% | 3.41% | – | – | – | – | – | – | – | – | – | – | – | – | –
CC(C)(C)c1nc(-c2cccc(NS(=O)(=O)c3c(F)cccc3F)c2F)c(-c2ccnc(N)n2)s1 [dabrafenib] | 51% | 80% | 15% | – | – | – | 0.238% | 9% | – | – | – | – | – | – | – | – | – | – | – | –
COc1cc(Nc2c(C#N)cnc3cc(OCCCN4CCN(C)CC4)c(OC)cc23)c(Cl)cc1Cl [bosutinib] | 64% | 100% | 102% | -3.22% | – | – | -12% | 78% | – | – | – | – | – | – | – | – | – | – | – | –
Cc1nc(Nc2ncc(C(=O)Nc3c(C)cccc3Cl)s2)cc(N2CCN(CCO)CC2)n1 [dasatinib] | – | – | – | – | 22% | – | 5% | – | – | – | – | – | – | – | – | – | – | – | – | –
CO[C@H]1C[C@@H]2CC[C@@H](C)[C@@](O)(O2)C(=O)C(=O)N2CCCC[C@H]2C(=O)O[C@H]([C@H](C)C[C@@H]2CC[C@@H](OC(=O)C(C)(CO)CO)[C@H](OC)C2)CC(=O)[C@H](C)/C=C(\C)[C@@H](O)[C@@H](OC)C(=O)[C@H](C)C[C@H](C)/C=C/C=C/C=C/1C [temsirolimus] | -4% | -3% | -2.54% | -5.57% | -3.42% | -12% | -6% | -2.12% | -8% | -2.42% | – | – | – | – | – | – | – | – | – | –
C#Cc1cccc(Nc2ncnc3cc(OCCOC)c(OCCOC)cc23)c1 [erlotinib] | – | – | – | – | – | – | – | – | – | – | 56% | 18% | 34% | 1.68% | 32% | 6% | 29% | 1.46% | 9% | -1.06%
CCCS(=O)(=O)Nc1ccc(F)c(C(=O)c2c[nH]c3ncc(-c4ccc(Cl)cc4)cc23)c1F [vemurafenib] | 56% | 6% | 33% | -4.33% | -2.59% | 23% | -2% | 17% | -3.41% | 51% | – | – | – | – | – | – | – | – | – | –
N#CC[C@H](C1CCCC1)n1cc(-c2ncnc3[nH]ccc23)cn1 [ruxolitinib] | 18% | 35% | 0.811% | 14% | 63% | – | -4% | 36% | -8% | 12% | – | – | – | – | – | – | – | – | – | –
CC(=O)Nc1cccc(-n2c(=O)n(C3CC3)c(=O)c3c(Nc4ccc(I)cc4F)n(C)c(=O)c(C)c32)c1 [trametinib] | 2.22% | -4.66% | 3% | -1.31% | -5.37% | -2% | -4% | -4% | 4.44% | -3.74% | – | – | – | – | – | – | – | – | – | –
COc1cc2c(Nc3ccc(Br)cc3F)ncnc2cc1OCC1CCN(C)CC1 [vandetanib] | 100% | 95% | 66% | -3.59% | – | – | -6.49% | – | -9% | 3.16% | – | – | – | – | – | – | – | – | – | –
CS(=O)(=O)CCNCc1ccc(-c2ccc3ncnc(Nc4ccc(OCc5cccc(F)c5)c(Cl)c4)c3c2)o1 [lapatinib] | – | -4.72% | 25% | – | -10% | 5.59% | 0.254% | – | 0.601% | – | -1% | – | – | -1% | -3% | – | – | – | – | -5.59%
CO[C@H]1C[C@@H]2CC[C@@H](C)[C@@](O)(O2)C(=O)C(=O)N2CCCC[C@H]2C(=O)O[C@H]([C@H](C)C[C@@H]2CC[C@@H](OCCO)[C@H](OC)C2)CC(=O)[C@H](C)/C=C(\C)[C@@H](O)[C@@H](OC)C(=O)[C@H](C)C[C@H](C)/C=C/C=C/C=C/1C [everolimus] | -6% | -3% | -3% | -6.44% | -4.51% | 3.74% | -7% | -4.44% | -9% | -1.86% | – | – | – | – | – | – | – | – | – | –
CCN(CC)CCNC(=O)c1c(C)[nH]c(/C=C2\C(=O)Nc3ccc(F)cc32)c1C [sunitinib] | – | – | 94% | – | 72% | 81% | – | – | – | – | – | – | – | – | – | – | – | – | – | –
C[C@@H](Oc1cc(-c2cnn(C3CCNCC3)c2)cnc1N)c1c(Cl)ccc(F)c1Cl [crizotinib] | 30% | 38% | 11% | -2.6% | – | – | -5.28% | 21% | -7% | 83% | – | – | – | – | – | – | – | – | – | –
Cc1ccc(Nc2nccc(N(C)c3ccc4c(C)n(C)nc4c3)n2)cc1S(N)(=O)=O [pazopanib] | – | 17% | 83% | -3% | – | – | -4% | 87% | -1.49% | 2% | – | – | – | – | – | – | – | – | – | –
